Active and inactive are the calls of the source. The rule behind the calls is not given here.
How the values were obtained:
Homo sapiens [1] = species on record: Homo sapiens; assay: Vasoconstrictor activity in human relative to betamethasone valerate; assay type: functional, organism-based
Homo sapiens [2] = species on record: Homo sapiens; assay: Skin stripping in human by stripped-skin assay relative to betamethasone valerate; assay type: functional, organism-based

Compound | Activity (Homo sapiens [1]) | Activity (Homo sapiens [2])
CC(=O)O[C@@H]1C[C@H]2[C@@H]3CCC4=CC(=O)C=C[C@]4(C)[C@@]3(F)[C@@H](O)C[C@]2(C)[C@@]1(OC(C)=O)C(=O)CCl | inactive | inactive
CCO[C@@H]1C[C@H]2[C@@H]3CCC4=CC(=O)CC[C@]4(C)[C@@]3(F)[C@@H](O)C[C@]2(C)[C@@]1(OC(C)=O)C(=O)CCl | inactive | inactive
CCCCC(=O)O[C@]1(C(=O)CCl)[C@H](OC)C[C@H]2[C@@H]3CCC4=CC(=O)CC[C@]4(C)[C@@]3(F)[C@@H](O)C[C@@]21C | inactive | inactive
CCC(=O)O[C@]1(C(=O)CCl)[C@H](OC(C)=O)C[C@H]2[C@@H]3CCC4=CC(=O)C=C[C@]4(C)[C@@]3(F)[C@@H](O)C[C@@]21C | inactive | inactive
CO[C@@H]1C[C@H]2[C@@H]3CCC4=CC(=O)CC[C@]4(C)[C@@]3(F)[C@@H](O)C[C@]2(C)[C@@]1(OC(C)=O)C(=O)CCl | inactive | inactive

— ChEMBL document CHEMBL3272178, “Prepartion of 16alpha-alkoxy and 16alpha-acyloxy derivatives of 21-chloro-17-acyloxy corticosteroids and determination of their vasoconstrictor activities in humans” (J Med Chem, 1976)
